Where no end group is shown, it is not given here.
How the values were obtained:
male rats = details: cited from earlier work
male Wistar rats = assay: Irwin test; format: in vivo, rat; details: tail vein injection
Procedure: An Irwin test was performed on 12 male Wistar rats (Iffa Credo, L'Arbresles, France), weighing 260-280 g. They were housed in groups of 4 in a climate controlled room with a 12h light:dark cycle (light 8:00 PM-8:00 AM) and had access to food and water ad libitum. After a seven day acclimatization period, the rats were weighed, identified and randomly assigned to one of the four treatment groups. The drug was injected to the tail vein of the rats according to the group dose.
Observations were performed 15, 30, 60 and 120 minutes after administration. Among the most noticeable results are the results concerning the awareness state of the rats.

Row | Compound | locomotion (male rats; high doses) | anxiolytic-like effect (male rats; low doses) | aggressiveness (male Wistar rats)
1 | CC[C@H](C)[C@@H]1NC(=O)[C@H](Cc2ccc(O)cc2)NC(=O)[C@@H](N)CSSC[C@@H](C(=O)N2CCC[C@H]2C(=O)N[C@@H](CC(C)C)C(=O)NCC(N)=O)NC(=O)[C@H](CC(N)=O)NC(=O)[C@H](CCC(N)=O)NC1=O [oxytocin] | decrease locomotion | anxiolytic-like effect | 
2 | QHNPR [FG-005, Gln-His-Asn-Pro-Arg] |  |  | not associated with an increase of aggressiveness

Source: patent US20030186870A1, “Therapeutic methods and compositions for the treatment of impaired interpersonal and behavioral disorders” (priority 1999, published 2003)
